# Source: patent US12492181B2, “Gem-disubstituted piperidine melanocortin subtype-2 receptor (MC2R) antagonists and uses thereof” (Crinetics Pharmaceuticals, Inc., priority 2019, dated 2025)
# Biological target: T1, hMC2 receptor (crude hMC2R membranes from CRE-bla-CHO-K1 cells stably expressing hMC2 receptor and hMRAP accessory protein) (Homo sapiens, UniProt Q01718)
# T1 construct: crude membrane fractions
# Experiment: hMC2 membrane binding assay ([125I]ACTH (1-39) Tyr23, SPA)
# Conditions: displacement of 0.2 nM [125I]ACTH (1-39) Tyr23 from hMC2R membranes, 1.5 hours at room temperature; read-out: MC2R binding potency
# Protocol: Crude membrane fractions are prepared from CRE-bla-CHO-K1 cells stably expressing hMC2 receptor and hMRAP accessory protein (Thermo Fisher). The cells are grown to 85-100% confluence on standard tissue culture dishes in GlutaMax DMEM growth media (Gibco) with following additives: 10% dialyzed FBS (Gemini), 0.1 mM NEAA (Gibco), 25 mM HEPES (Gibco), 5 μg/mL blasticidin (Goldbio), 100 μg/mL zeocin (Invitrogen), 600 μg/mL hygromycin (Goldbio). To prepare membranes, cells are scraped and collected in 1× Dulbecco's phosphate buffered saline (Corning) and then pelleted at 1000 RPM's. The cell pellet is reconstituted in membrane preparation buffer (20 mM HEPES, 6 mM MgCl2 and 1 mM EGTA, protease inhibitor tablets (Pierce) adjusted to pH 7.4), homogenized using a dounce homogenizer, and the resulting membrane fraction is pelleted by centrifugation at 12,000 RPM's. The membrane pellet is resuspended in membrane preparation buffer, snap freezed and stored at −80° C. for later use.
# Binding Assay for hMC2 Antagonists Protocol:
# The hMC2 membrane binding assay utilizes the following components: radiolabel [^125I]ACTH (1-39) Tyr23 (PerkinElmer), wheatgerm agglutinin coated PVT SPA beads (PerkinElmer), crude hMC2R membranes, and compounds. Briefly hMC2R membranes are incubated with SPA beads in binding assay buffer (50 mM HEPES, 5 mM MgCl2, 1 mM CaCl2), 0.20% BSA, protease inhibitor tablets (Pierce) adjusted to pH7.4) prior to assay initiation. […] Assay plates are read using a Top Count NXT and Ki values for compounds are determined using a GraphPad Prism 6 non-linear regression analysis.
# T1 sequence (Q01718 whole entry): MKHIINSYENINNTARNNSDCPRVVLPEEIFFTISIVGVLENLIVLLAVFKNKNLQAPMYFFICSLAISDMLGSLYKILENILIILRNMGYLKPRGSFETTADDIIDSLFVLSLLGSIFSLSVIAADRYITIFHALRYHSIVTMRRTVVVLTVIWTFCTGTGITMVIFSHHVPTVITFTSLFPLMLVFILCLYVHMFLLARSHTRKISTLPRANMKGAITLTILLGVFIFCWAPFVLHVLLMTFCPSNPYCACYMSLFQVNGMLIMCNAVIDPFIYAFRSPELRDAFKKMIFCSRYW
# T1 sequence (Q8TCY5 whole entry partner): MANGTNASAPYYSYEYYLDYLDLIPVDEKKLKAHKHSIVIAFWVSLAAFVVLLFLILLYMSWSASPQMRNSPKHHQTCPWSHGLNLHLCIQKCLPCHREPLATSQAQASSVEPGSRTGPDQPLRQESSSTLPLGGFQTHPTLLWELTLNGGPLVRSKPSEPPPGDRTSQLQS
row,Compound,Ki [nM]
1,"CN1CC[C@@H](NC(=O)C2(c3ccc(-c4ccccc4OC(F)(F)F)nc3)CCN(c3ccc(C(F)(F)F)cc3C#N)CC2)C1 [Compound 1-71, 1-[2-cyano-4-(trifluoromethyl)phenyl]-N-[(3R)-1-methylpyrrolidin-3-yl]-4-{6-[2-(trifluoromethoxy)phenyl]pyridin-3-yl}piperidine-4-carboxamide]",< 10
2,"(3R)-1-methylpyrrolidin-3-yl N-{1-[2-cyano-4-(trifluoromethyl)phenyl]-4-{2′-ethoxy-[2,3′-bipyridin]-5-yl}piperidin-4-yl}carbamate [Compound 2-22]",< 10
3,"CCOc1ncccc1-c1ccc(C2(C(=O)N[C@@H]3CCN(C)C3)CCN(c3ccc(C(F)(F)F)nc3C#N)CC2)cc1 [Compound 1-23, 1-[2-cyano-6-(trifluoromethyl)pyridin-3-yl]-4-[4-(2-ethoxypyridin-3-yl)phenyl]-N-[(3R)-1-methylpyrrolidin-3-yl]piperidine-4-carboxamide]",< 10
4,"CCOc1ncccc1-c1ncc(C2(C(=O)N[C@H]3CCN(C)C3)CCN(c3ccc(C(F)(F)F)cc3C#N)CC2)cn1 [Compound 1-106, 1-[2-cyano-4-(trifluoromethyl)phenyl]-4-[2-(2-ethoxypyridin-3-yl)pyrimidin-5-yl]-N-[(3S)-1-methylpyrrolidin-3-yl]piperidine-4-carboxamide]",< 10
5,"COc1ccccc1-c1ccc(C2(C(=O)N[C@H]3CCN(C)C3)CCN(c3ccc(C(F)(F)F)cc3C#N)CC2)nn1 [Compound 1-183, 1-[2-cyano-4-(trifluoromethyl)phenyl]-4-[6-(2-methoxyphenyl)pyridazin-3-yl]-N-[(3S)-1-methylpyrrolidin-3-yl]piperidine-4-carboxamide]",< 10
6,"CCOc1ncccc1-c1ccc(C2(C(=O)N[C@H]3CCN(C)C3)CCN(c3ccc(C(F)(F)F)cn3)CC2)cn1 [Compound 1-35, 4-{2′-ethoxy-[2,3′-bipyridin]-5-yl}-N-[(3S)-1-methylpyrrolidin-3-yl]-1-[5-(trifluoromethyl)pyridin-2-yl]piperidine-4-carboxamide]",< 10
7,"CN1CC[C@H](NC(=O)C2(c3cnc(-c4cccn4C)c(F)c3)CCN(c3ccc(Cl)cc3C#N)CC2)C1 [Compound 1-163, 1-(4-chloro-2-cyanophenyl)-4-[5-fluoro-6-(1-methyl-1H-pyrrol-2-yl)pyridin-3-yl]-N-[(3S)-1-methylpyrrolidin-3-yl]piperidine-4-carboxamide]",< 10
8,"COc1ccccc1-c1ncc(C2(C(=O)N[C@H]3CCN(C)C3)CCN(c3ccc(C(F)(F)F)nc3C#N)CC2)cc1F [Compound 1-128, 1-[2-cyano-6-(trifluoromethyl)pyridin-3-yl]-4-[5-fluoro-6-(2-methoxyphenyl)pyridin-3-yl]-N-[(3S)-1-methylpyrrolidin-3-yl]piperidine-4-carboxamide]",< 10
9,"CN1CC[C@@H](NC(=O)C2(c3ccc(-c4cccc5ccoc45)nc3)CCN(c3ccc(C(F)(F)F)cc3C#N)CC2)C1 [Compound 1-54, 4-[6-(1-benzofuran-7-yl)pyridin-3-yl]-1-[2-cyano-4-(trifluoromethyl)phenyl]-N-[(3R)-1-methylpyrrolidin-3-yl]piperidine-4-carboxamide]",10 to 100
10,"CN1CC[C@@H](NC(=O)C2(c3ccc(-c4cccn4C)nc3)CCN(c3ccc(C(F)(F)F)cc3C#N)CC2)C1 [Compound 1-88, 1-[2-cyano-4-(trifluoromethyl)phenyl]-4-[6-(1-methyl-1H-pyrrol-2-yl)pyridin-3-yl]-N-[(3R)-1-methylpyrrolidin-3-yl]piperidine-4-carboxamide]",< 10

# Second part, the compound after the results:
row,Ki [nM],Compound
1,< 10,"CCOc1ncccc1-c1ccc(C2(NC(=O)C3CN(C)C3)CCN(c3ccc(C(F)(F)F)cc3C#N)CC2)cn1 [Compound 2-32, N-{1-[2-cyano-4-(trifluoromethyl)phenyl]-4-{2′-ethoxy-[2,3′-bipyridin]-5-yl}piperidin-4-yl}-1-methylazetidine-3-carboxamide]"
2,< 10,"COc1ccccc1-c1ccc(C2(C(=O)NCCN(C)C)CCN(c3ccc(C(F)(F)F)cc3F)CC2)cn1 [Compound 1-254, N-[2-(dimethylamino)ethyl]-1-[2-fluoro-4-(trifluoromethyl)phenyl]-4-[6-(2-methoxyphenyl)pyridin-3-yl]piperidine-4-carboxamide]"
3,10 to 100,"CCOc1ncccc1-c1ccc(C2(OC(=O)NCCN(C)C)CCN(c3ccc(C(F)(F)F)cc3C#N)CC2)cc1 [Compound 2-2, 1-[2-cyano-4-(trifluoromethyl)phenyl]-4-[4-(2-ethoxypyridin-3-yl)phenyl]piperidin-4-yl N-[2-(dimethylamino)ethyl]carbamate]"
4,< 10,"C[C@@H](CN(C)C)NC(=O)C1(c2cnc(-c3cccn3C)c(F)c2)CCN(c2ccc(C(F)(F)F)cc2C#N)CC1 [Compound 1-324, 1-[2-cyano-4-(trifluoromethyl)phenyl]-N-[(2S)-1-(dimethylamino)propan-2-yl]-4-[5-fluoro-6-(1-methyl-1H-pyrrol-2-yl)pyridin-3-yl]piperidine-4-carboxamide]"
5,< 10,"CN1CC[C@@H](C(=O)NC2(c3ccc(-c4cccn4C)nc3)CCN(c3ccc(C(F)(F)F)cc3C#N)CC2)C1 [Compound 2-47, (3R)—N-{1-[2-cyano-4-(trifluoromethyl)phenyl]-4-[6-(1-methyl-1H-pyrrol-2-yl)pyridin-3-yl]piperidin-4-yl}-1-methylpyrrolidine-3-carboxamide]"
6,< 10,"CCOc1ccccc1-c1ccc(C2(NC(=O)CN(C)C)CCN(c3ccc(C(F)(F)F)cc3C#N)CC2)cn1 [Compound 2-34, N-{1-[2-cyano-4-(trifluoromethyl)phenyl]-4-[6-(2-ethoxyphenyl)pyridin-3-yl]piperidin-4-yl}-2-(dimethylamino)acetamide]"
7,10 to 100,"COc1ccccc1-c1ccc(C2(C(=O)NC[C@@H]3CN(C)CCO3)CCN(c3ccc(C(F)(F)F)cc3C#N)CC2)cn1 [Compound 1-330, 1-[2-cyano-4-(trifluoromethyl)phenyl]-4-[6-(2-methoxyphenyl)pyridin-3-yl]-N-{[(2R)-4-methylmorpholin-2-yl]methyl}piperidine-4-carboxamide]"
8,10 to 100,"CN1CCC[C@H]1CNC(=O)C1(c2ccc(-c3cccn3C)nc2)CCN(c2ccc(C(F)(F)F)cc2C#N)CC1 [Compound 1-229, 1-[2-cyano-4-(trifluoromethyl)phenyl]-4-[6-(1-methyl-1H-pyrrol-2-yl)pyridin-3-yl]-N-{[(2S)-1-methylpyrrolidin-2-yl]methyl}piperidine-4-carboxamide]"
9,< 10,"COc1ccccc1-c1ccc(C2(C(=O)NC[C@@H]3C[C@@H](F)CN3)CCN(c3ccc(C(F)(F)F)cc3C#N)CC2)cn1 [Compound 1-247, 1-[2-cyano-4-(trifluoromethyl)phenyl]-N-{[(2S,4R)-4-fluoropyrrolidin-2-yl]methyl}-4-[6-(2-methoxyphenyl)pyridin-3-yl]piperidine-4-carboxamide]"
10,10 to 100,"CCOc1ncccc1-c1ccc(C2(OCCN(C)C)CCN(c3ccc(C(F)(F)F)cc3C#N)CC2)cc1 [Compound 2-1, 2-{4-[2-(dimethylamino)ethoxy]-4-[4-(2-ethoxypyridin-3-yl)phenyl]piperidin-1-yl}-5-(trifluoromethyl)benzonitrile]"
11,10 to 100,"CNCCCNC(=O)C1(c2ccc(-c3cccn3C)nc2)CCN(c2ccc(C(F)(F)F)cc2C#N)CC1 [Compound 1-206, 1-[2-cyano-4-(trifluoromethyl)phenyl]-4-[6-(1-methyl-1H-pyrrol-2-yl)pyridin-3-yl]-N-[3-(methylamino)propyl]piperidine-4-carboxamide]"
12,< 10,"CCN(C)CCNC(=O)C1(c2ccc(-c3cccn3C)nc2)CCN(c2ccc(C(F)(F)F)cc2C#N)CC1 [Compound 1-265, 1-[2-cyano-4-(trifluoromethyl)phenyl]-N-{2-[ethyl(methyl)amino]ethyl}-4-[6-(1-methyl-1H-pyrrol-2-yl)pyridin-3-yl]piperidine-4-carboxamide]"
13,< 10,"CCOc1ncccc1-c1ccc(C2(NC(=O)N3CC(NC)C3)CCN(c3ccc(C(F)(F)F)cc3C#N)CC2)cn1 [Compound 2-23, N-{1-[2-cyano-4-(trifluoromethyl)phenyl]-4-{2′-ethoxy-[2,3′-bipyridin]-5-yl}piperidin-4-yl}-3-(methylamino)azetidine-1-carboxamide]"
14,< 10,"CCOc1ccccc1-c1ccc(C2(NC(=O)[C@H]3CCN(C)C3)CCN(c3ccc(C(F)(F)F)cc3C#N)CC2)cn1 [Compound 2-27, (3S)—N-{1-[2-cyano-4-(trifluoromethyl)phenyl]-4-[6-(2-ethoxyphenyl)pyridin-3-yl]piperidin-4-yl}-1-methylpyrrolidine-3-carboxamide]"
15,< 10,"CO[C@@H]1CN(C)C[C@H]1NC(=O)C1(c2ccc(-c3cccn3C)nc2)CCN(c2ccc(C(F)(F)F)cc2C#N)CC1 (racemic) [Compound 1-268, rac-1-[2-cyano-4-(trifluoromethyl)phenyl]-N-[(3R,4R)-4-methoxy-1-methylpyrrolidin-3-yl]-4-[6-(1-methyl-1H-pyrrol-2-yl)pyridin-3-yl]piperidine-4-carboxamide]"
